What was measured:
Type in all cases: in vivo, human
healthy subjects = experiment: 001 Study Part A: sleepiness measures KSS, DSST, PVT
Description: For Part A, 64 healthy subjects were enrolled into cohorts sequentially in a gradual dose escalation manner, to receive either compound A or placebo, and stratified by gender. Each cohort comprised six compound A- and two placebo-treated subjects. All study drugs were administered as single doses using one or more compound A-capsules or compound A-matched placebo capsules due to the test dose. After screening, subjects underwent baseline procedures and randomization on Day-2. Subjects were dosed on Day 1 in the morning after an overnight fast, 1 hour after lights-on. PK blood samples were collected at prespecified timepoints, and PD assessments were performed. Subjects were administered assessments on Day 1 predose and every 2 hours from 2 to 12 hours postdose, and each morning on Days 2 to 6.
These assessments included the Karolinska Sleepiness Scale (KSS), Digit Symbol Substitution Test (DSST), and Psychomotor Vigilance Test (PVT) in order to assess daytime sleepiness, level of alertness, and ability to concentrate. Waketime Questionnaires were administered after PD assessments each morning on Days 1 to Day 6. Time and duration of naps was recorded on Days 1 and 2. Safety was monitored throughout the study. […]

healthy adult subjects = experiment: 002 Study: next-day residual sleepiness (KSS, PVT, DSST) and Waketime Questionnaire
Description: All subjects were administered PD assessments, including the Karolinska Sleepiness Scale (KSS), Digit Symbol Substitution Test (DSST), and Psychomotor Vigilance Test (PVT) in order to assess acute sleepiness in the interval between dosing and bedtime, as well as next-day residual sleepiness and the level of alertness and ability to concentrate. In addition, a Waketime Questionnaire was administered daily in order to assess quality of sleep on the previous night.
PD effects were assessed by evaluating postdose and next-day functioning on the KSS, DSST, and the PVT, and by self-report of sleep quality on the Waketime Questionnaire. The KSS, DSST, and PVT were performed starting Day-1 at 15 minutes before habitual bedtime; on Days 1 to 15 within 15 minutes after habitual waketime, and at 1, 2, 4, 8, and 12 hours after habitual waketime, and on Days 1 to 14 at 15 minutes predose and 15 minutes postdose. 24-hour Holter recordings were started 30 minutes before bedtime on Day-2 and just prior to dosing on Day 14. Extractions from these recordings were used to conduct ECG analyses, including the HPQT analysis. Waketime Questionnaires were administered on Day 1 to Day 19.
The KSS, PVT, and DSST were administered on each treatment day in the evening predose and postdose to assess the acute effect of compound A on sleepiness. For these timepoints, the daily 15 minutes predose values on the KSS, DSST, and PVT served as a baseline for that day's 15 minutes postdose value (daily baseline). The KSS, PVT, and DSST were also administered throughout the daytime hours subsequent to each dosing evening to assess the effect of compound A on next-day residual sleepiness. For these timepoints, the assessments taken at Day 1, 15 minutes and 1, 2, 4, 8, and 12 hours after habitual waketime served as the baseline for the assessments taken at the corresponding times after habitual waketime on Day 2 to Day 15 (time-matched baseline). Waketime Questionnaires were administered on Day 1 through Day 19 in the morning hours. The predose value on Day 1 was used as the baseline. The difference between placebo and each dose of compound A in change from baseline at each timepoint was calculated along with 95% confidence intervals (CIs). Potential dose-response and time trend were explored as data allowed.

subjects with insomnia = experiment: 201 Study: population PK and PK/PD analysis
Description: During the Treatment period, blood samples for plasma concentrations of compound A were obtained within 30 minutes predose each night (except on Day 1) in the clinic and within 1 hour of morning waketime following each night spent in the clinic. Plasma concentrations of compound A were measured using a validated liquid chromatography-tandem mass spectrometry (LC-MS/MS) assay.
The PK/PD Analysis Set was used to evaluate relationships between compound A concentrations and selected PD parameters. The relationships between exposure to compound A and selected PD endpoints (eg. KSS, DSST, RTI) were explored graphically and could be followed by population PK/PD modeling. The relationship between plasma concentrations of compound A at predose (trough), and within 1 hour after morning waketime, and selected PD parameters, was analyzed using Nonmem version 7.2 or later.
Measures of the PD effects of compound A included KSS, RTI, DSST, the WFB (RTI, Rapid Visual Processing [RVP], and Spatial Span [SSP]), POMS, melatonin levels, and the DLMO. Due to high variability and non-normal distribution in change from baseline of LPS, it was not possible to reliably model the concentration-response relationship between compound A PK parameters and LPS. Nonetheless, higher plasma concentrations of compound A were associated with larger decreases in LPS, up to approximately 10 ng/mL. This finding was consistent with the efficacy results, where LPS was decreased at doses of 2.5 mg and higher. […] When modeled, WASO data were best described by log-linear relationships with the maximum observed concentration (Cmax). […] However, subjects whose compound A plasma concentrations were greater than 20 ng/mL at 1 hour after waking had slightly greater increases on the KSS and a higher incidence of AEs of somnolence. This concentration is predicted to be achieved by most subjects receiving doses greater than 10 mg.

Cc1ncc(OC[C@@]2(c3cccc(F)c3)C[C@H]2C(=O)Nc2ccc(F)cn2)c(C)n1 [Compound A, (1R,2 S)-2-(((2,4-dimethylpyrimidin-5-yl)oxy)methyl)-2-(3-fluorophenyl)-N-(5-fluoropyridin-2-yl) cyclopropanecarboxamide]
time of maximal pharmacodynamic response on KSS, DSST, PVT (healthy subjects; postdose, coinciding with Cmax): ~2 h
measures of sleepiness (KSS, DSST, PVT) (healthy subjects; single morning doses 1-200 mg): general dose-response relationship
next day residual sleepiness as measured by KSS, PVT, DSST (healthy adult subjects; 2.5-75 mg once daily for 14 days): dose-related increases in both the magnitude and duration
next-day residual sleepiness vs placebo (KSS, PVT, DSST) (healthy adult subjects; 2.5-mg and 5-mg dose groups, any time, any treatment day): no meaningful difference from placebo
next-day residual sleepiness vs placebo (KSS) (healthy adult subjects; 10-mg dose group, within 2 hours after waketime, Day 2 through Day 4): Slight differences from placebo
increase in next-day residual sleepiness (healthy adult subjects; 25-mg dose group, within 2 hours after waketime): more consistent and slightly larger than in the 10-mg dose group
next-day residual sleepiness vs placebo, all assessments (healthy adult subjects; 50-mg and 75-mg dose groups): consistent and relatively large differences from placebo
Waketime Questionnaire: changes in nighttime sleep (healthy adult subjects; any dose group): None of the items on the Waketime Questionnaire indicated a systematic pattern of changes in nighttime sleep
measures of sleepiness vs placebo (healthy adult subjects; by 12 hours after waketime, any dose group, any day): no differences from placebo
next-day residual sleepiness (KSS, DSST, RTI) vs time-matched plasma concentrations (subjects with insomnia; PK/PD analyses): did not show any apparent relationship
exposure-response relationship for WASO (subjects with insomnia; PK/PD model): log-linear relationship with Cmax
plasma concentration up to which higher concentrations were associated with larger decreases in LPS (subjects with insomnia; asymptote above this concentration): approximately 10 ng/mL
plasma concentration associated with slightly greater increases on the KSS and higher incidence of AEs of somnolence (subjects with insomnia; at 1 hour after waking): greater than 20 ng/mL
Apparent clearance (subjects with insomnia; population PK): independent of dose and time
PK model (subjects with insomnia; population PK): 2-compartment model with elimination from the central compartment
doses predicted to achieve plasma concentration greater than 20 ng/mL at 1 hour after waking in most subjects (subjects with insomnia; predicted): greater than 10 mg
